Residue numbers refer to the chain shown, from its start.
Assays:
[1] = molecular target: T1, human muscarinic M1 receptors (Homo sapiens, UniProt P11229); assay: Stimulation of inositol phosphate production in A9L cells, human M1 (IPOne TR-FRET); type: cell-based; details: huM1/A9L versus huM3/A9L
T1 construct: host or cells: A9L cells
T1 sequence (P11229 1-460): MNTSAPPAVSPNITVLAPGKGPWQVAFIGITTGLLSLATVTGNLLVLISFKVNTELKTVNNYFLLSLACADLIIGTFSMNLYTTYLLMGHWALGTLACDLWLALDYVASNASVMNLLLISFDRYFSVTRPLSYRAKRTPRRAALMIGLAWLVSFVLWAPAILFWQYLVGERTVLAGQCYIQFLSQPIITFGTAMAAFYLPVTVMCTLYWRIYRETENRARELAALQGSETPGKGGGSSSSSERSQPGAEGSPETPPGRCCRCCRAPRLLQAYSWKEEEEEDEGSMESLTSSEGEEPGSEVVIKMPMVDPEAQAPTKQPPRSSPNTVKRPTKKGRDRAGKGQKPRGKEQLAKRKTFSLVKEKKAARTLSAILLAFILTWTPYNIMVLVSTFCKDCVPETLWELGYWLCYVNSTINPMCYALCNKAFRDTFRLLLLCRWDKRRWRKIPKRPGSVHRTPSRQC
Procedure: Muscarinic M1 and M3 agonist activity was evaluated by measuring the stimulation of inositol phosphate (IP) production in the presence of lithium chloride from A9L cells transfected with expression plasmids containing human muscarinic M1 and M3 receptors, respectively. The cell lines were a gift from Professor W Messer, and the methods were as described in Tejada F R et al. J. Med. Chem. 2006; 49: 7518-31 except that the assay was scaled down to run in 384 well plates, and IP was measured in the cell lysates using the non-isotopic IPOne TR-FRET assay (CIS-BIO, Inc).
Cells were grown to 90% confluence in 384 well hi-base plates (Greiner Bio-One), compounds were added at suitable concentrations in growth medium containing 10 mM LiCL, buffered with an extra 10 mM HEPES (pH7.4), and incubated for 60 minutes at 37° C. Cells were lysed and assayed for IP following the manufacturer's instructions.
The value for a full agonist is 100%, while partial agonists give values below 100%.

[2] = system: pooled male Sprague-Dawley rat liver microsomes; assay: Metabolism by rat liver microsomes; type: in vitro ADME; details: 6 hours incubation
Procedure: Compounds were incubated with pooled male Sprague-Dawley rat liver microsomes (BD Biosciences, #452501) and an NADP-regenerating system in a phosphate buffer (pH 7.4) for a total of 6 hours. Aliquots were removed every 2 hours, and 1% formic acid was added to halt the reaction. Samples were centrifuged, filtered through 0.2 micron spinfilter and the amount of each compound in the supernatants was quantitated using LC/MS/MS.

[3] = system: pooled male human liver microsomes; assay: Metabolism by human liver microsomes; type: in vitro ADME; details: 6 hours incubation
Procedure: Compounds were incubated with pooled male human liver microsomes (BD Biosciences, #452172) and an NADP-regenerating system in a phosphate buffer (pH 7.4) for a total of 6 hours. Aliquots were removed every 2 hours, and 1% formic acid was added to halt the reaction. Samples were centrifuged, filtered through 0.2 micron spinfilter and the amount of each compound in the supernatants was quantitated using LC/MS/MS.

[4] = Blood and brain concentrations (rats) after oral gavage; type: in vivo, rat; details: for Brain Cmax (10 mg/kg po) 1 hr MCD-386 = 1.00: rat brain, relative to MCD-386
Procedure: Long-Evans Hooded rats (Charles River: male, 250-350 g) were dosed with solutions of test compounds in PBS by oral gavage. At the desired time after dosing, the animals were anesthetized with isoflurane, and then euthanized by cervical dislocation. Blood was obtained by cardiac puncture, transferred to a 1.5 mL microcentrifuge tube containing 15U Heparin, and the plasma recovered after centrifugation. Brains were dissected, weighed, immediately chilled to 4° C., and homogenized using a PowerGen 125 homogenizer in five volumes of ice-cold 2% formic acid. Proteins were precipitated from plasma and brain homogenate with two and five volumes respectively of ice-cold 2% formic acid and clarified by centrifugation. The supernatant was ultra-filtered by centrifugation through a 3K MWCO spin column (Pall Life Sciences), following the manufacturer's instructions. The concentration of compound in the ultra-filtrate was subjected to reverse-phase liquid chromatography using a 150×2.1 mm Agilent C8 reverse-phase column on a Shimadzu Prominence LC, eluting the compounds with a gradient of 2% to 50% of acetonitrile+0.1% formic acid for compound MI-50,382, or an isocratic flow of 2% acetonitrile+0.1% formic acid for the rest of the compounds listed. The concentration of the compound in the column effluent was measured using an Applied Biosystems API-3200 triple quadrupole mass spectrometer equipped with an electrospray sample injection system. The counts of the characteristic parent and product ions of each test compound were converted to concentration units by comparison with a standard calibration curve.

[5] = Delivery of MCD-386 in rats by iontophoresis patch versus oral gavage: plasma concentration; type: in vivo; details: rat
Procedure: Two patches were made up, consisting (in order from the outer layer to the skin contacting surface, respectively): adhesive tape (Transpore, 27 mm wide, 3M), circular stainless steel electrodes (22 mm dia) with a central hole for a stainless steel machine screw to which the electrode wire was attached, and 2 layers of 3mM CHR filter paper (Cat #3030-861, Whatman International, Ltd).
The mid-dorsal area of a Long Evans Hooded rat (approximate weight, 320 grams), surgically prepared with a jugular vein catheter (Charles River), was shaved and the skin was then cleaned using an Electrode Prep Pad (Professional Disposables, Inc, Cat #B59800). […]
Blood (400 μl) was withdrawn from the catheters in each rat every 30 minutes, transferred to 1.5 ml centrifuge tubes containing heparin (15 units/tube), and the plasma was separated by centrifugation from the cellular components. The plasma samples were maintained at 4 deg C. until analyzed. […]
The ultra-filtrates were subjected to reverse-phase liquid chromatography using a 150×2.1 mm Agilent C8 reverse-phase column on a Shimadzu Prominence LC, eluting the MCD-386 with an isocratic flow of 2% acetonitrile+0.1% formic acid. The concentration of MCD-386 in the column effluent was measured using an Applied Biosystems API-3200 triple quadrupole mass spectrometer equipped with a Turbo V source (electrospray sample injection) system. […]

rat M1 receptors = molecular target: T2, rat M1 receptors (Rattus norvegicus, UniProt P08482); assay: PI turnover (inositol phosphate production) in M1-CHO cells; type: cell-based; details: for Muscarinic agonist activity by PI turnover: cell lines expressing M1 and M3 subtypes
T2 construct: host or cells: Chinese Hamster Ovary cells (M1-CHO)
T2 sequence (P08482 1-460): T1 sequence (P11229 1-460) with A5V, T254S, P309S, R320K, A337G, I413V
Procedure: (§1) The medium was changed to 70 μL/well of inositol-free DMEM containing 2 mM glutamine, 10% FBS and 10 μCi/ml of [3H]-inositol (PE:cat #NET114A250UC), incubated overnight as above, then 100 μL of a solution of the test compound in HBSS containing 10 mM LiCl and 20 mM HEPES, pH 7.4 was added, incubation was continued for 60 min under the above conditions, and the test was stopped by removing the test compound and replacing with 100 μL of 50 mM formic acid in water at 4° C.

rat M3 receptors = molecular target: T3, rat M3 receptors (Rattus norvegicus, UniProt P08483); assay: PI turnover (inositol phosphate production) in M3-CHO cells; type: cell-based; details: mean Smax relative to mean Smax for carbachol (100)
T3 construct: host or cells: Chinese Hamster Ovary cells (M3-CHO)
Procedure: as §1

[6] = Metabolites in serum and urine of dosed rats; type: in vivo; details: rat serum/plasma or urine
Procedure: Oxadiazoles disclosed herein as well as other oxadiazoles were investigated to determine the formation of metabolites. Animals were dosed, blood taken, serum prepared, serum proteins precipitated and ultrafiltrates prepared as described in Example 6. In separate experiments, urine was collected from rats for 16-24 hours after dosing, using standard metabolic cages. The urine container and collected urine were maintained at 4° C. Urine was lyophilized, taken back into water. The ultrafiltrate was prepared by adding formic acid to a final concentration of 1% to the urine samples, then filtered through a 0.2 um nylon membrane. The ultrafiltrate was subjected to LC-MS analysis. Instead of measuring the product ions in Q3, manual Q1 scans of the liquid chromatograph were undertaken, seeking parent ions of potential metabolites of the compounds. The criteria for identifying metabolites were as follows: (1) the ion should be present in the sera or urines of dosed rats, but not in sera or urines from non-dosed rats (2) the ion should be identifiable as a metabolic derivative of the dosed compound (e.g. loss of a functional chemical moiety, addition of a hydroxyl group or a glucuronic acid moiety, etc). Metabolites were determined not to be present if no compound meeting the above criteria could be detected in serum or urine.

rats = assay: Muscarinic effects in vivo (salivary flow) in rats dosed orally; design: species or system rat

T3 sequence (P08483 whole entry): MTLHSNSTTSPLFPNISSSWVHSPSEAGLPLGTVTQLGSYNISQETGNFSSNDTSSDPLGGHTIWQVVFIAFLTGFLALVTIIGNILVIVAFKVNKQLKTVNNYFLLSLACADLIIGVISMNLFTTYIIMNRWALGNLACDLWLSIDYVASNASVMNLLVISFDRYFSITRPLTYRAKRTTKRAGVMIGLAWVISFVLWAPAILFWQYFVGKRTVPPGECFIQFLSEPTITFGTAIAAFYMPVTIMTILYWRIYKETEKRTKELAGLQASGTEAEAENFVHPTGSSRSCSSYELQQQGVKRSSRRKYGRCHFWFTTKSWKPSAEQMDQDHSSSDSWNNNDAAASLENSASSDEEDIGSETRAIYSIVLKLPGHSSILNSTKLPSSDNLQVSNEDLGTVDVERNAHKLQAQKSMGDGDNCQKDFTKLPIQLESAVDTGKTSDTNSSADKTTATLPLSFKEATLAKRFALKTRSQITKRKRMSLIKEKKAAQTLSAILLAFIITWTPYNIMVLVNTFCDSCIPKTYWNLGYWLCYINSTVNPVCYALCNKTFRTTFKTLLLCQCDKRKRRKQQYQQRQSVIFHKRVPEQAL

Compound: Cc1noc(C2=CCCN(C)C2)n1 [Compound 36, 3-methyl-5-(1-methyl-1,2,5,6-tetrahydropyridin-3-yl)-1,2,4-oxadiazole, reference compound]
- Selectivity for M1 versus M3 receptors [1]: some selectivity for M1 versus M3 receptors
- Metabolism in rat liver microsomes [2]: nearly completely metabolized
- Metabolism in human liver microsomes [3]: nearly completely metabolized
- PAMPA units (PAMPA test): 12.75

Compound: CCc1noc(C2CN=CNC2)n1 (centres unmarked) [MCD-386, 5-(3-ethyl-1,2,4-oxadiazol-5-yl)-1,4,5,6-tetrahydropyrimidine]
- Brain Cmax (10 mg/kg po) 1 hr MCD-386 = 1.00 [4]: 1.00
- Bioavailability by transdermal delivery versus oral administration [5]: up to three times higher
- PAMPA units (PAMPA test): 0.05

Compound: [2H]C([2H])([2H])c1noc(C2CCCNC2)n1 (centres unmarked) [compound 7, 3-D3-Methyl-5-(piperidin-3-yl)-1,2,4-oxadiazole]
- Muscarinic agonist activity by PI turnover (rat M1 receptors): relatively low
- M1/CHO PI turnover Relative Mean Smax (rat M1 receptors; mean Smax relative to mean Smax for carbachol (100)): 2.7
- M3/CHO PI turnover Relative Mean Smax (rat M3 receptors): 0
- Plasma concentration relative to compound 1 ([4]; after oral dosing to rats): approximately 2.4 times
- Brain Cmax (10 mg/kg po) 1 hr MCD-386 = 1.00 [4]: 2.16
- Penetration into the brain ([4]; rats after oral dosing): penetrated into the brain
- Presence of metabolites (10 mg/kg po) [6]: No metabolites were identified and No
- Muscarinic agonist activity in vivo (rats; in vivo): demonstrated muscarinic agonist activity in vivo
- Metabolism in human liver microsomes [3]: metabolized significantly less in human liver microsomes than in rat liver microsomes

Compound: Cl.[2H]C([2H])([2H])c1noc(C2CN=CNC2)n1 (centres unmarked) [compound 4, 3-(d3-methyl)-5-(1,4,5,6-tetrahydropyrimidin-5-yl)-1,2,4-oxadiazole hydrochloride]
- Functional selectivity for M1 subtype by PI turnover (rat M1 receptors; M1 versus M3 cell lines): not selective for the M1 subtype
- Muscarinic agonist activity by PI turnover (rat M1 receptors): near full-agonist
- M3/CHO PI turnover Relative Mean Smax (rat M3 receptors): 92.6
- Salivary flow (rats; rats, dosed orally): copious salivary flow, which was relatively short-lived
